US4052262A (priority 1969, dated 1977)
Read-outs that look alike come from different tables or passages of the source.

Molecular target: T1, alkaline protease (crystalline enzyme of the present invention) from Bacillus sp. No. 221 (ATCC 21522), Bacillus sp. No. 0-4 (ATCC 21536) or Bacillus sp. No. Y- (Shouchella clausii, UniProt P41362)
T1 construct: made in house; host or cells: culture of the wild Bacillus strain (No. 221, No. 0-4 or No. Y-76); native enzyme isolated from the culture
T1 sequence (P41362 112-380): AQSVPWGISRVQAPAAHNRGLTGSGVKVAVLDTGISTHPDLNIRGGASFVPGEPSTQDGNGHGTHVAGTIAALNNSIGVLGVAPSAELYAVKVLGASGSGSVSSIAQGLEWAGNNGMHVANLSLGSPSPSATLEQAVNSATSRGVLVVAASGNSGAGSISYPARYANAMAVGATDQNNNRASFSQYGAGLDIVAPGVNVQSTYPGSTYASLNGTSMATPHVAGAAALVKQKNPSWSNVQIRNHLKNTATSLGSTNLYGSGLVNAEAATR
Assay type: biochemical, No. Y-76
Protocol: One milliliter of the enzyme solution suitably diluted with 10^-2 M CaCl2 was mixed with 5 ml of 0.6% casein solution (pH 11.5, 2 × 10^-2 M Na2 HPO4 - NaOH buffer) at 30° C. After 10 minutes' incubation, 5 ml of trichloroacetic acid solution (0.11M trichloroacetic acid, 0.22M sodium acetate, and 0.33M acetic acid) was added to the reaction mixture and the mixture was further incubated at 30° C for 30 minutes. The mixture was filtered and the absorbance of the filtrate was measured at 275 mμ. The readings were corrected by substracting the value of the blank in which the enxyme solution was mixed with trichloroacetic acid solution before the casein solution was added.
One unit of protease activity is defined as the amount of enzyme required to produce the digest which is not precipitated by trichloroacetic acid and which gives absorbance value equivalent to 1 γ of tyrosine per minute at 30° C. The relative activity is the activity at any pH divided by the maximum activity and multiplied by 100. FIG. 4 of this application gives the data of the absolute activity (arbitrary scale) on the ordinate and the pH's on the axis of the abscissa.

Work on O=C(O)CN(CCN(CC(=O)O)CC(=O)O)CC(=O)O [EDTA, ethylenediaminetetraacetic acid] yielded a Residual activity of 100%.
O=C(O)c1cc[c]([Hg][Cl])cc1 [PCMB, p-chloromercuribenzoate] gave a Residual activity (additive concentration 10^-3 M) of 100%.
NC(N)=O [Urea] gave a Residual activity (additive concentration 6 M) of 0%.
